Measurements reported in PubChem BioAssay (NCI).
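Dose response: 5 concentrations. Exposure: 48 h. Format: 96-well plates. Endpoint: linear interpolation; highest concentration if not reached. Here, GI50 denotes the concentration required for 50% inhibition of growth. TGI: concentration producing complete growth inhibition.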

Columns and labels:
Experiment in all cases: NCI-60 cell line screen, 48 h; in the data active = GI50 below about 0.43 µM; inactive = the rest
[1] = tested on: OVCAR-5 ovarian
[2] = tested on: A498 renal
[3] = tested on: BT-549 breast
[4] = tested on: MDA-MB-435
[5] = tested on: SF-295 CNS
[6] = tested on: MOLT-4 leukemia
[7] = tested on: M14 melanoma
[8] = tested on: SK-MEL-5 melanoma
[9] = tested on: HS 578T breast
[10] = tested on: U251 CNS

C[C@]12CC[C@@H]3c4cc(OC(F)F)c(OS(N)(=O)=O)cc4CC[C@H]3[C@@H]1CC[C@@H]2OS(N)(=O)=O
47.7 µM: TGI [6]
20.2 µM: TGI [10]
4.02 µM: TGI [2]
active: GI50 [4] 0.241 µM
16.1 µM: TGI [9]
inactive: GI50 [1] 4.73 µM | GI50 [2] 0.934 µM | GI50 [3] 3.19 µM | GI50 [5] 1.04 µM | GI50 [6] 1.06 µM | GI50 [7] 0.631 µM | GI50 [8] 1.21 µM | GI50 [9] 1 µM | GI50 [10] 1.83 µM
17.7 µM: TGI [7]
20.4 µM: TGI [3]
26.5 µM: TGI [1]
3.14 µM: TGI [5]
3.04 µM: TGI [4]
13.4 µM: TGI [8]

CCC(O)C1Cc2c(C)cc3c(c2O1)C(=O)c1ccccc1C3=O (stereo not given)
> 100 µM: TGI [1] | TGI [6] | TGI [7] | TGI [8] | TGI [10]
86.8 µM: TGI [5]
70.3 µM: TGI [2]

CCOC(=O)NC/C=C/COC1CCCCO1 (stereo not given)
> 100 µM: TGI [2] | TGI [6] | TGI [7] | TGI [8] | TGI [10]

COc1cc(O)c2c(c1)O[C@@H]1OCC[C@H]21
> 100 µM: TGI [1] | TGI [2] | TGI [5] | TGI [6] | TGI [7] | TGI [8] | TGI [10]

COc1ccc(NC(=O)CC/C(CC(=O)c2ccco2)=N/NC(N)=S)cc1
> 100 µM: TGI [1] | TGI [2] | TGI [5] | TGI [6] | TGI [7] | TGI [10]

COc1ccc(Sc2nc3cc(N)cc(N)c3nc2-c2ccccc2)cc1
> 100 µM: TGI [1] | TGI [2] | TGI [4] | TGI [5] | TGI [6] | TGI [7] | TGI [8] | TGI [9] | TGI [10]
inactive: GI50 [1] > 100 µM | GI50 [2] > 100 µM | GI50 [4] > 100 µM | GI50 [5] > 100 µM | GI50 [6] 4.19 µM | GI50 [7] > 100 µM | GI50 [8] 24 µM | GI50 [9] > 100 µM | GI50 [10] > 100 µM

Nc1nc(Cl)cc(NCC(O)CO)n1 (stereo not given)
> 100 µM: TGI [1] | TGI [2] | TGI [5] | TGI [6] | TGI [7] | TGI [8] | TGI [10]

COc1cc2c(cc1OC)CC(=O)Nc1cc(OC)c(OC)cc1CC2
> 100 µM: TGI [1] | TGI [2] | TGI [5] | TGI [6] | TGI [7] | TGI [10]
71 µM: TGI [8]

COc1cc(C(=O)N2CCN(c3ccccc3)CC2)c2ccccc2n1
> 100 µM: TGI [1] | TGI [3] | TGI [6] | TGI [10]
0.357 µM: TGI [2]
0.387 µM: TGI [9]
0.115 µM: TGI [5]
inactive: GI50 [1] 0.586 µM | GI50 [3] 0.475 µM | GI50 [6] 0.863 µM
0.805 µM: TGI [7]
9.42 µM: TGI [8]
active: GI50 [2] 0.0226 µM | GI50 [5] 0.0276 µM | GI50 [7] 0.0582 µM | GI50 [8] 0.0541 µM | GI50 [9] 0.0387 µM | GI50 [10] 0.0955 µM

N#CCCCCCOCCOCCOCCOCCOCCCCCC#N
> 100 µM: TGI [1] | TGI [2] | TGI [5] | TGI [6] | TGI [7] | TGI [8] | TGI [10]

O=C(c1ccccc1)C(c1ccccc1)C1(O)C(=O)Nc2ccc([N+](=O)[O-])cc21 (stereo not given)
> 100 µM: TGI [1] | TGI [2] | TGI [6] | TGI [7] | TGI [10]
57.7 µM: TGI [8]

COc1ccc(Cc2c(=O)[nH]nc3ccccc23)cc1
> 100 µM: TGI [1] | TGI [2] | TGI [5] | TGI [6] | TGI [7] | TGI [8]

Cc1nn2c(nc1=O)sc1ccc3ccccc3c12
> 100 µM: TGI [1] | TGI [5] | TGI [6] | TGI [7] | TGI [8] | TGI [10]

CCOC(=O)c1cc(C(=O)c2cc(OC)c(OC)c(OC)c2)n2c1ccc1ccccc12
active: GI50 [2] 0.0362 µM | GI50 [4] 0.0367 µM | GI50 [7] 0.137 µM | GI50 [9] 0.276 µM
> 100 µM: TGI [1] | TGI [3] | TGI [6] | TGI [7] | TGI [8] | TGI [10]
0.173 µM: TGI [4]
0.316 µM: TGI [2]
> 20.6 µM: TGI [9]
inactive: GI50 [1] 0.539 µM | GI50 [3] 1.08 µM | GI50 [6] 0.477 µM | GI50 [8] 0.434 µM | GI50 [10] 0.428 µM

CC(=O)Nc1c(I)c(NC(C)=O)c(I)c(C(=O)O)c1I
inactive: GI50 [1] > 100 µM | GI50 [2] > 100 µM | GI50 [3] > 100 µM | GI50 [4] > 100 µM | GI50 [6] > 100 µM | GI50 [7] > 100 µM | GI50 [8] > 100 µM | GI50 [9] > 100 µM
> 100 µM: TGI [1] | TGI [2] | TGI [3] | TGI [4] | TGI [6] | TGI [7] | TGI [8] | TGI [9]

CC1(Br)CC2OC3(Br)C=CC(C)(O)C2(CC1=O)C3(C)C (stereo not given)
> 100 µM: TGI [1] | TGI [2] | TGI [5] | TGI [6] | TGI [7] | TGI [8] | TGI [10]

CC(C)(C)[Si](C)(C)OC1[C@@H](O[Si](C)(C)C(C)(C)C)[C@@H](CNC(=O)NC(=O)CF)O[C@H]1n1cnc2c(NC(=O)Nc3ccccc3)ncnc21 (stereo not given in full)
43.7 µM: TGI [6]
42.5 µM: TGI [3]
25.6 µM: TGI [8]
inactive: GI50 [1] 15.9 µM | GI50 [2] 8.92 µM | GI50 [3] 12.2 µM | GI50 [4] 14.6 µM | GI50 [6] 4.19 µM | GI50 [7] 15.9 µM | GI50 [8] 3.07 µM | GI50 [9] 10.1 µM | GI50 [10] 9.67 µM
> 50 µM: TGI [1] | TGI [4] | TGI [7] | TGI [9]
25.8 µM: TGI [10]
25.3 µM: TGI [2]

O=[N+]([O-])c1cc([N+](=O)[O-])c(/C=C/c2ccc(Cl)c(Cl)c2)cc1/C=C/c1ccc(Cl)c(Cl)c1
62.4 µM: TGI [6]
35.7 µM: TGI [8]
81 µM: TGI [5]
> 100 µM: TGI [1] | TGI [2] | TGI [10]
52 µM: TGI [7]

O=C(OC1CCC2OOC1O2)c1ccc([N+](=O)[O-])cc1 (stereo not given)
> 100 µM: TGI [1] | TGI [2] | TGI [5] | TGI [6] | TGI [7] | TGI [8] | TGI [10]

CCCCNC(=O)C1C(=O)N(CCCC)C(=O)/C1=N\N (stereo not given)
> 100 µM: TGI [1] | TGI [2] | TGI [5] | TGI [6] | TGI [7] | TGI [8] | TGI [10]
